For the test, the system named is Notch target genes Hes1, cMyc and Dtx1; NICD. As to the kind of experiment: Notch target gene expression in human cancer cell lines (qRT-PCR, Western blot). In kind it is cell-based. The protocol: Total RNA was extracted from cells using TRIzol® extraction kit (Invitrogen). Briefly, 1×10^6 cells were washed with ice-cold 1×PBS and lysed in 1 ml of TRIzol® solution for 5 minutes at room temperature to dissociate nucleoprotein complexes. Lysed cells were then treated with 200 μl of chloroform and shaked vigorously for 15-30 seconds and incubated at room temperature for 2-3 minutes. The samples were centrifuged at 14000 rpm using Eppendorf table top centrifuge for 10 minutes at 4° C. Following centrifugation, upper aqueous phase was transferred to new eppendorf tubes. […]
Total RNA extracted from the cell was used to synthesize cDNA by reverse transcription reaction. […] RNA concentration was measured using NanoDrop®ND-1000 spectrophotometer (Witec AG) and 500 ng of total RNA was mixed with a 10 mM mix of dNTPs and 100 ng of random primers. […]
Cells were lysed in RIPA buffer (50 mM Tris.Cl, pH 7.5, 150 mM NaCl, 1% nonidet P-40, 0.5% sodium deoxycholate and 0.1% SDS) for 30 minutes at 4° C. […] The protein concentration was determined by Bradford assay using spectrophotometer (Ultrospec 3000 pro). […]
For immunoblotting, membranes were blocked with 5% milk and incubated overnight with primary antibodies at 4° C. […] Signal was detected with Super Signal West chemiluminescent substrate (Thermo Scientific, catalog number 34077). […]
Background: In qPCR the cycle at which signal appears reflects the starting amount.

Entries after “also recorded” stand apart in the source; their conditions may differ.

Regarding `CC(C)(C)c1ccc(Oc2ccc(N)cn2)cc1` [I3, 6-(4-Tert-Butylphenoxy)Pyridin-3-Amine], under “RPMI 8402, HPB ALL, KOPTK1, 24 hours, Western blot”, the NICD protein levels result is “reduced levels of NICD”. The “expression of Notch target genes Hes1, cMyc and Dtx1 (mRNA and protein)” value (RPMI 8402, HPBALL, KOPTK1 and PANC1, 24 hours) is “induced a statistically significant downregulation of Notch target genes; also recorded: inhibits Notch signalling and downregulates its target genes in human cancer cell lines; also recorded: downregulation of Notch target genes in human T-ALL cell lines”.

Values taken from US10054581B1, “Inhibitors of notch signaling pathway and use thereof in treatment of cancers” (Ecole Polytechnique Federale de Lausanne (EPFL), priority 2011, dated 2018).
